Experimental data: patent US6156700A, “3-(1,2-Benzisothiazol- and isoxazol-5-yl)-2,4(1H,3H)-pyrimidinedione or thione and 3-(1,2-benzisothiazol- and isoxazol-5-yl)-4(3H)-pyrimidinone or thione herbicidal agents” (American Cyanmid Company, priority 1998, dated 2000)

Tests used:
[1] = system: Ragweed, Common, Ambrosia artemisifolia; assay: Postemergence herbicidal evaluation, AMBEL; assay type: in vivo, L.; details: 0.2500 kg/ha
In short: (§1)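 Scoring four to five weeks after treatment used a 0–9 scale based on plant appearance versus control. Treatment: 40 psi spray of about 0.0157–0.500 kg/ha onto two-week seedlings, compound dispersed in acetone/water 50/50 with 0.5% TWEEN 20.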

[2] = system: Sicklepod, Cassia obtusifolia; assay: Postemergence herbicidal evaluation, CASOB; assay type: in vivo, L.; details: 0.2500 kg/ha
In short: as §1

Galium, Galium aparine = assay: Postemergence herbicidal evaluation, GALAP; assay type: in vivo; details: 0.2500 kg/ha
In short: as §1

[3] = system: Morningglory Spp., Ipomoea Spp.; assay: Postemergence herbicidal evaluation, IPOSS; assay type: in vivo; details: 0.2500 kg/ha
In short: as §1

[4] = system: Barnyardgrass, Echinochloa crus-galli; assay: Postemergence herbicidal evaluation, ECHCG; assay type: in vivo, (L.) Beau; details: 0.2500 kg/ha
In short: as §1

[5] = system: Foxtail, Green, Setaria viridis; assay: Postemergence herbicidal evaluation, SETVI; assay type: in vivo, (L.) Beau; details: 0.2500 kg/ha
In short: as §1

[6] = system: Wheat, Winter, cv Riband, Triticum aestivum; assay: Postemergence herbicidal evaluation, TRZAWR; assay type: in vivo; details: 0.2500 kg/ha
In short: as §1

Corn, Field, Zea mays [7] = assay: Postemergence herbicidal evaluation, ZEAMX; assay type: in vivo, L.; details: 0.2500 kg/ha
In short: as §1

[8] = system: Velvetleaf, Abutilon theophrasti; assay: Preemergence herbicidal evaluation, ABUTH; assay type: in vivo, Medic.; details: 0.2500 kg/ha
In short: (§2)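 Seeds mixed with potting soil were planted on about one inch of soil in cups, then sprayed with test compound in aqueous acetone at about 0.0156 to 0.500 kg per hectare. Plants were grown under greenhouse conditions and rated visually 4–5 weeks after treatment on a 0–9 scale against a control.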

[9] = system: Ragweed, Common, Ambrosia artemisifolia; assay: Preemergence herbicidal evaluation, AMBEL; assay type: in vivo, L.; details: 0.2500 kg/ha
In short: as §2

[10] = system: Sicklepod, Cassia obtusifolia; assay: Preemergence herbicidal evaluation, CASOB; assay type: in vivo, L.; details: 0.2500 kg/ha
In short: as §2

[11] = system: Morningglory Spp., Ipomoea Spp.; assay: Preemergence herbicidal evaluation, IPOSS; assay type: in vivo; details: 0.2500 kg/ha
In short: as §2

[12] = system: Rice, Tebonnet, Oryza sativa; assay: Preemergence herbicidal evaluation, ORYSAT; assay type: in vivo, (L.) Tebonnet; details: 0.2500 kg/ha
In short: as §2

Corn, Field, Zea mays [13] = assay: Preemergence herbicidal evaluation, ZEAMX; assay type: in vivo, L.; details: 0.2500 kg/ha
In short: as §2

[14] = system: ECHORC Watergrass (Calif.); assay: Preemergence weed control, flooded paddy (Table III); assay type: in vivo, Echinochloa oryzoides; set-up: scale not given here
In short: (§3)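 Seeds or propagules sown in silt loam under 1.5 to 3 cm standing flood water; compound in 50/50 aqueous/acetone pipetted into the water at about 0.0313 to 0.500 kg/ha active ingredient. Greenhouse-held; herbicidal effect rated on a scale 3-4 weeks after treatment.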

CYPIR Rice Flatsedge = assay: as above; assay type: in vivo, Cyperus iria; set-up: scale not given here
In short: as §3

MOOVA Monochoria [15] = assay: as above; assay type: in vivo, Monochoria vaginalis; set-up: scale not given here
In short: as §3

[16] = system: SAGPY Arrowhead (Pygmaea); assay: as above; assay type: in vivo, Sagittaria pygmaea; set-up: scale not given here
In short: as §3

MOOVA Monochoria [17] = assay: Postemergence weed control, flooded paddy (Table IV); assay type: in vivo, Monochoria vaginalis; set-up: scale not given here
In short: (§4)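 Weeds 3–5 cm tall and rice at 1.5–2.5 leaf stage in flooded containers, water held 1.5–3 cm above soil. Compounds in 50/50 aqueous/acetone applied into flood water at about 0.0313–0.500 kg/ha. Herbicidal effect rated visually three to four weeks after treatment.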

[18] = system: SAGPY Arrowhead (Pygmaea); assay: as above; assay type: in vivo, Sagittaria pygmaea; set-up: scale not given here
In short: as §4

ORYSAT Rice, Tebonnet = assay: Rice tolerance, flooded paddy (Table IV); assay type: in vivo, Oryza sativa; set-up: scale not given here; details: crop tolerance
In short: as §4

SMILES: CCc1ccc(-c2nsc3ccc(-n4c(=O)cc(C(F)(F)F)n(C)c4=O)cc23)cc1 [Compound 5, 3-[3-(p-Ethylphenyl)-1,2-benzisothiazol-5-yl]-1-methyl-6-(trifluoromethyl)-2,4 (1H,3H)-pyrimidinedione]
- herbicide rating (0-9) [1]: 9.0
- herbicide rating (0-9) [2]: 9.0
- herbicide rating (0-9) (Galium, Galium aparine): 9.0
- herbicide rating (0-9) [3]: 9.0
- herbicide rating (0-9) [4]: 7.0
- herbicide rating (0-9) [5]: 9.0
- herbicide rating (0-9) [6]: 2.0
- herbicide rating (0-9) (Corn, Field, Zea mays [7]): 3.0
- herbicide rating (0-9) [8]: 9.0
- herbicide rating (0-9) [9]: 9.0
- herbicide rating (0-9) [10]: 9.0
- herbicide rating (0-9) [11]: 9.0
- herbicide rating (0-9) [12]: 7.0
- herbicide rating (0-9) (Corn, Field, Zea mays [13]): 3.0
- herbicidal effect rating ([14]; 0.0313 kg/ha): 9.0
- herbicidal effect rating ([14]; 0.0625 kg/ha): 9.0
- herbicidal effect rating ([14]; 0.1250 kg/ha): 9.0
- herbicidal effect rating ([14]; 0.2500 kg/ha): 9.0
- herbicidal effect rating ([14]; 0.5000 kg/ha): 9.0
- herbicidal effect rating (CYPIR Rice Flatsedge; 0.0313 kg/ha): 9.0
- herbicidal effect rating (CYPIR Rice Flatsedge; 0.0625 kg/ha): 9.0
- herbicidal effect rating (CYPIR Rice Flatsedge; 0.1250 kg/ha): 9.0
- herbicidal effect rating (CYPIR Rice Flatsedge; 0.2500 kg/ha): 9.0
- herbicidal effect rating (CYPIR Rice Flatsedge; 0.5000 kg/ha): 9.0
- herbicidal effect rating (MOOVA Monochoria [15]; 0.0313 kg/ha): 9.0
- herbicidal effect rating (MOOVA Monochoria [15]; 0.0625 kg/ha): 9.0
- herbicidal effect rating (MOOVA Monochoria [15]; 0.1250 kg/ha): 9.0
- herbicidal effect rating (MOOVA Monochoria [15]; 0.2500 kg/ha): 9.0
- herbicidal effect rating (MOOVA Monochoria [15]; 0.5000 kg/ha): 9.0
- herbicidal effect rating ([16]; 0.0313 kg/ha): 0.0
- herbicidal effect rating ([16]; 0.0625 kg/ha): 0.0
- herbicidal effect rating ([16]; 0.1250 kg/ha): 2.0
- herbicidal effect rating ([16]; 0.2500 kg/ha): 7.0
- herbicidal effect rating ([16]; 0.5000 kg/ha): 7.0
- herbicidal effect rating (MOOVA Monochoria [17]; 0.1250 kg/ha): 9.0
- herbicidal effect rating (MOOVA Monochoria [17]; 0.2500 kg/ha): 9.0
- herbicidal effect rating (MOOVA Monochoria [17]; 0.5000 kg/ha): 9.0
- herbicidal effect rating ([18]; 0.1250 kg/ha): 4.0
- herbicidal effect rating ([18]; 0.2500 kg/ha): 6.0
- herbicidal effect rating ([18]; 0.5000 kg/ha): 8.0
- herbicidal effect rating (ORYSAT Rice, Tebonnet; 0.1250 kg/ha): 4.0
- herbicidal effect rating (ORYSAT Rice, Tebonnet; 0.2500 kg/ha): 6.0
- herbicidal effect rating (ORYSAT Rice, Tebonnet; 0.5000 kg/ha): 8.0

SMILES: COc1cc(C)ccc1-c1nsc2ccc(-n3c(=O)cc(C(F)(F)F)n(C)c3=O)cc12 [Compound 7, 3-[3-(2-Methoxy-p-tolyl)-1,2-benzisothiazol-5-yl]-1-methyl-6-(trifluoromethyl)-2,4(1H,3H)-pyrimidinedione]
- herbicide rating (0-9) [1]: 9.0
- herbicide rating (0-9) [2]: 9.0
- herbicide rating (0-9) (Galium, Galium aparine): 8.0
- herbicide rating (0-9) [3]: 9.0
- herbicide rating (0-9) [4]: 8.0
- herbicide rating (0-9) [5]: 9.0
- herbicide rating (0-9) [6]: 7.0
- herbicide rating (0-9) (Corn, Field, Zea mays [7]): 7.0
- herbicide rating (0-9) [8]: 9.0
- herbicide rating (0-9) [9]: 9.0
- herbicide rating (0-9) [10]: 9.0
- herbicide rating (0-9) [11]: 9.0
- herbicide rating (0-9) [12]: 8.0
- herbicide rating (0-9) (Corn, Field, Zea mays [13]): 7.0
- herbicidal effect rating ([14]; 0.0313 kg/ha): 9.0
- herbicidal effect rating ([14]; 0.0625 kg/ha): 9.0
- herbicidal effect rating ([14]; 0.1250 kg/ha): 9.0
- herbicidal effect rating ([14]; 0.2500 kg/ha): 9.0
- herbicidal effect rating ([14]; 0.5000 kg/ha): 9.0
- herbicidal effect rating (CYPIR Rice Flatsedge; 0.0313 kg/ha): 9.0
- herbicidal effect rating (CYPIR Rice Flatsedge; 0.0625 kg/ha): 9.0
- herbicidal effect rating (CYPIR Rice Flatsedge; 0.1250 kg/ha): 9.0
- herbicidal effect rating (CYPIR Rice Flatsedge; 0.2500 kg/ha): 9.0
- herbicidal effect rating (CYPIR Rice Flatsedge; 0.5000 kg/ha): 9.0
- herbicidal effect rating (MOOVA Monochoria [15]; 0.0313 kg/ha): 9.0
- herbicidal effect rating (MOOVA Monochoria [15]; 0.0625 kg/ha): 9.0
- herbicidal effect rating (MOOVA Monochoria [15]; 0.1250 kg/ha): 9.0
- herbicidal effect rating (MOOVA Monochoria [15]; 0.2500 kg/ha): 9.0
- herbicidal effect rating (MOOVA Monochoria [15]; 0.5000 kg/ha): 9.0
- herbicidal effect rating ([16]; 0.0313 kg/ha): 6.0
- herbicidal effect rating ([16]; 0.0625 kg/ha): 8.0
- herbicidal effect rating ([16]; 0.1250 kg/ha): 9.0
- herbicidal effect rating ([16]; 0.2500 kg/ha): 9.0
- herbicidal effect rating ([16]; 0.5000 kg/ha): 9.0
- herbicidal effect rating (MOOVA Monochoria [17]; 0.1250 kg/ha): 9.0
- herbicidal effect rating (MOOVA Monochoria [17]; 0.2500 kg/ha): 9.0
- herbicidal effect rating (MOOVA Monochoria [17]; 0.5000 kg/ha): 9.0
- herbicidal effect rating ([18]; 0.1250 kg/ha): 4.0
- herbicidal effect rating ([18]; 0.2500 kg/ha): 9.0
- herbicidal effect rating ([18]; 0.5000 kg/ha): 9.0
- herbicidal effect rating (ORYSAT Rice, Tebonnet; 0.1250 kg/ha): 7.0
- herbicidal effect rating (ORYSAT Rice, Tebonnet; 0.2500 kg/ha): 7.0
- herbicidal effect rating (ORYSAT Rice, Tebonnet; 0.5000 kg/ha): 8.0

SMILES: COC(=O)COc1cc(C)ccc1-c1nsc2ccc(-n3c(=O)cc(C(F)(F)F)n(C)c3=O)cc12 [Compound 8, Methyl {{6-{5-[3,6-dihydro-3-methyl-4-(trifluoromethyl)-2,6-dioxo-1(2H)-pyrimidinyl]-1,2-benzisothiazol-3-yl}-m-tolyl}oxy}acetate]
- herbicide rating (0-9) [1]: 9.0
- herbicide rating (0-9) [2]: 9.0
- herbicide rating (0-9) (Galium, Galium aparine): 9.0
- herbicide rating (0-9) [3]: 9.0
- herbicide rating (0-9) [4]: 9.0
- herbicide rating (0-9) [5]: 9.0
- herbicide rating (0-9) [6]: 9.0
- herbicide rating (0-9) (Corn, Field, Zea mays [7]): 9.0
- herbicide rating (0-9) [8]: 9.0
- herbicide rating (0-9) [9]: 9.0
- herbicide rating (0-9) [10]: 9.0
- herbicide rating (0-9) [11]: 9.0
- herbicide rating (0-9) [12]: 9.0
- herbicide rating (0-9) (Corn, Field, Zea mays [13]): 9.0
- herbicidal effect rating ([14]; 0.0313 kg/ha): 9.0
- herbicidal effect rating ([14]; 0.0625 kg/ha): 9.0
- herbicidal effect rating ([14]; 0.1250 kg/ha): 9.0
- herbicidal effect rating ([14]; 0.2500 kg/ha): 9.0
- herbicidal effect rating ([14]; 0.5000 kg/ha): 9.0
- herbicidal effect rating (CYPIR Rice Flatsedge; 0.0313 kg/ha): 9.0
- herbicidal effect rating (CYPIR Rice Flatsedge; 0.0625 kg/ha): 9.0
- herbicidal effect rating (CYPIR Rice Flatsedge; 0.1250 kg/ha): 9.0
- herbicidal effect rating (CYPIR Rice Flatsedge; 0.2500 kg/ha): 9.0
- herbicidal effect rating (CYPIR Rice Flatsedge; 0.5000 kg/ha): 9.0
- herbicidal effect rating (MOOVA Monochoria [15]; 0.0313 kg/ha): 9.0
- herbicidal effect rating (MOOVA Monochoria [15]; 0.0625 kg/ha): 9.0
- herbicidal effect rating (MOOVA Monochoria [15]; 0.1250 kg/ha): 9.0
- herbicidal effect rating (MOOVA Monochoria [15]; 0.2500 kg/ha): 9.0
- herbicidal effect rating (MOOVA Monochoria [15]; 0.5000 kg/ha): 9.0
- herbicidal effect rating ([16]; 0.0313 kg/ha): 6.0
- herbicidal effect rating ([16]; 0.0625 kg/ha): 9.0
- herbicidal effect rating ([16]; 0.1250 kg/ha): 9.0
- herbicidal effect rating ([16]; 0.2500 kg/ha): 9.0
- herbicidal effect rating ([16]; 0.5000 kg/ha): 9.0
- herbicidal effect rating (MOOVA Monochoria [17]; 0.1250 kg/ha): 9.0
- herbicidal effect rating (MOOVA Monochoria [17]; 0.2500 kg/ha): 9.0
- herbicidal effect rating (MOOVA Monochoria [17]; 0.5000 kg/ha): 9.0
- herbicidal effect rating ([18]; 0.1250 kg/ha): 4.0
- herbicidal effect rating ([18]; 0.2500 kg/ha): 9.0
- herbicidal effect rating ([18]; 0.5000 kg/ha): 9.0
- herbicidal effect rating (ORYSAT Rice, Tebonnet; 0.1250 kg/ha): 6.0
- herbicidal effect rating (ORYSAT Rice, Tebonnet; 0.2500 kg/ha): 8.0
- herbicidal effect rating (ORYSAT Rice, Tebonnet; 0.5000 kg/ha): 9.0
